Measurements taken from patent US20060063784A1, “Method of using substituted pyrazolo [1,5-a] pyrimidines” (priority 2004, published 2006).

System: 80S14 (p21-deficient) cells
Assay: Cytotoxicity assay using isogenic cell lines: IC50 in 80S14 (p21-deficient) cells, SRB
Type: cell-based, human
Settings: 80S14 (p21-deficient) cells, 5 days, SRB; class symbols; read-out: IC50 for 80S14
Procedure: Cytotoxicity Assay Using Isogenic Cell Lines: • 1. 80S14 (p21-deficient) cells were cultured in RPMI 1640 medium (Gibco/Invitrogen Life technologies) supplemented with 10% fetal bovine serum (FBS, Gibco) and 10 μg/ml gentamycin (Gibco). Cells were maintained at 37° C. under 7% CO2 • 2. Cells were plated at 6×10^4/ml (0.2 ml/well; 12,000 cells/well) in 96-well microtiter plates (Falcon or Corning/Costar) and incubated at 37° C. overnight (18-24 hours). • 3. 2-5 μl of the test agent [200 μg/ml stock in 20% DMSO/20 mM HEPES, pH 7.5 (Gibco)] was added to each well to achieve a final concentration of 2-5 μg/ml. Cells were incubated with the test compounds for 5 days at 37° C. • 4. Surviving cells were fixed with 50 μl 50% trichloroacetic acid (Sigma; 10% final concentration) for 1 hour at 4° C. • 5. Plates were rinsed twice with water (0.3 ml per wash using MRD8 robot), and allowed to dry. • 6. Sulforhodamine B (SRB) (Sigma; 0.4% in 1% acetic acid, 50 μl per well; MRD8 robot) was added and plates kept at room temperature for 10 minutes. • 7. Excess dye was removed by washing with 1% acetic acid (3 times, 0.3 ml per wash; MRD8 robot) and allowed to dry. • 8. The dye was solubilized in Tris base (Sigma; 10 mM, 150 μl per well). Plates were kept at room temperature for 30 minutes to allow the dye to diffuse. • 9. Absorbance was measured at 540 nm. • 10. The percentage of cells surviving drug treatment relative to control wells (no drug) was determined. • 11. The difference in % cell survival between the two cell lines was calculated. • 12. Compounds producing a difference score of >50 were considered to be selective for the p21-deficient cells and were evaluated further: Determination of selectivity of compounds for p21−/− cells: • 1. 80S14 cells were cultured as described above. • 2. Cells were seeded in 96-well microtiter plates at 12,000 cells/well (either 0.15 ml/well of 8×10^4 cells/ml suspension, or 0.2 ml/well of 6×10^4 cells/ml suspension). Plates were incubated at 37° C. overnight (18-24 hours). • 3. Serial dilutions of the test agent were added to each well. Dilutions were prepared either in 40% DMSO/20% methanol/20 mM HEPES, pH 7.5 (Gibco) or directly in growth medium. One of two dose ranges were used: 5 pM to 50 μM or 170 pg/ml to 10 μg/ml. Cells were incubated with the test compounds for 5 days at 37° C. • 4. Surviving cells were fixed with 50 μl 50% trichloroacetic acid (Sigma; 10% final concentration) for 1 hour at 4° C. • 5. Plates were rinsed extensively in water, and allowed to dry. • 6. Sulforhodamine B (Sigma; 0.4% in 1% acetic acid, 70 μl per well) was added and plates kept at room temperature for 10 minutes. • 7. Excess dye was removed by washing 5 times with 1% acetic acid and plates were allowed to dry. • 8. The dye was solubilized in Tris base (Sigma; 10 mM, 150 μl per well). Plates were placed on a titer plate shaker (Lab Line Instruments) for 5 minutes to allow the dye to diffuse. • 9. Absorbance was measured at 560 nm.
10. The drug concentration that inhibits cell proliferation by 50% relative to untreated controls (IC50) was determined from cytotoxicity curves.

Molecule “N,N′-diethyl-3-[3-(2-thienylcarbonyl)-pyrazolo[1,5-a]pyrimidin-7-yl]-benzamide [Example 248]” has an IC50 of 10 to 50 µM.

Same assay, conditions: 80S14 p21-deficient cells, 5 days incubation, SRB; read-out: IC50 for 80SI4

`CCNC(=O)NCC(=O)Nc1cccc(-c2ccnc3c(C(=O)c4cccs4)cnn23)c1` [Example 137, N-2-[(ethylamino)carbonyl]-N-1-{3-[3-(thien-2-ylcarbonyl)pyrazolo[1,5-a]pyrimidin-7-yl]phenyl}glycinamide] was tested, and the IC50 was 1 to 10 µM.

Same assay, conditions: Homo sapiens, 80S14, 120 h, read-out: IC50 for 80S14 (uM)

In the case of `CC(C)OC(=O)Nc1cccc(-c2ccnc3c(C(=O)c4ccoc4)cnn23)c1` [Example 305, Isopropyl 3-[3-(3-furoyl)pyrazolo[1,5-a]pyrimidin-7-yl]phenylcarbamate], the IC50 is reported as 1 to 10 µM.

Same assay, conditions: Homo sapiens, 80S14, 120 h, read-out: IC50 for 80SI4 (uM)

First: Cc1ccc(OC(=O)Nc2cccc(-c3ccnc4c(C(=O)c5cccs5)cnn34)c2)cc1 [Example 23, 4-methylphenyl 3-[3-(thien-2-ylcarbonyl)pyrazolo[1,5-a]pyrimidin-7-yl]phenylcarbamate]
Second: CC(C)COC(=O)Nc1cccc(-c2ccnc3c(C(=O)c4cccs4)cnn23)c1 [Example 16, isobutyl 3-[3-(thien-2-ylcarbonyl)pyrazolo[1,5-a]pyrimidin-7-yl]phenylcarbamate]
The IC50 of the first is higher: 10 to 50 µM for the first, under 1 µM for the second. The second is the more potent here.

Same assay, conditions: Homo sapiens, 120 h; 80S14 (p21-deficient) cells, 5 days, SRB; class symbols; read-out: IC50 for 80S14

First: CCCCNC(=O)c1cccc(-c2ccnc3c(C(=O)c4cccs4)cnn23)c1 [Example 319, N-Butyl-3-[3-(2-thienylcarbonyl)pyrazolo[1,5-a]pyrimidin-7-yl]benzamide]
Second: O=C(c1cccs1)c1cnn2c(-c3cccc(NC(=O)C4CCNCC4)c3)ccnc12 [Example 408, N-{3-[3-(Thien-2-ylcarbonyl)pyrazolo[1,5-a]pyrimidin-7-yl]phenyl}piperidine-4-carboxamide]
The IC50 of the first is lower: under 1 µM for the first, 1 to 10 µM for the second. The first is the more potent here.

`CN(C)c1ccc(-c2ccnc3c(C(=O)c4cccs4)cnn23)cc1NC(=O)c1ccncc1` [Example 428, N-{2-(Dimethylamino)-5-[3-(thien-2-ylcarbonyl)pyrazolo[1,5-a]pyrimidin-7-yl]phenyl}isonicotinamide] and `O=C(Nc1cccc(-c2ccnc3c(C(=O)c4cccs4)cnn23)c1)c1ccc(Cl)cc1Cl` [Example 289, 2,4-Dichloro-N-{3-[3-(2-thienylcarbonyl)pyrazolo[1,5-a]pyrimidin-7-yl]phenyl}benzamide] fall in the same range of IC50: 1 to 10 µM for the first, 1 to 10 µM for the second.

First: CN1CCN(Cc2ccc(-c3cccc(-c4ccnc5c(C(=O)c6cccs6)cnn45)c3)cc2)CC1 [Example 460, (7-{4′-[(4-Methylpiperazin-1-yl)methyl]-1,1′-biphenyl-3-yl}pyrazolo[1,5-a]pyrimidin-3-yl)(thien-2-yl)methanone]
Second: C/C(=C\c1ccc(C(C)(C)C)cc1)CNc1cccc(-c2ccnc3c(C(=O)c4cccs4)cnn23)c1 [Example 413, [7-(3-{[(2E)-3-(4-tert-Butylphenyl)-2-methylprop-2-enyl]amino}phenyl)pyrazolo[1,5-a]pyrimidin-3-yl](thien-2-yl)methanone]
The IC50 of the first is lower: under 1 µM for the first, 10 to 50 µM for the second. The first is the more potent here.

Compared with `CC(C)COC(=O)Nc1cccc(-c2ccnc3c(Br)cnn23)c1` [Example 327, Isobutyl 3-(3-bromopyrazolo[1,5-a]pyrimidin-7-yl)phenylcarbamate], `COc1ccc(-c2ccnc3c(C(=O)c4cccs4)cnn23)cc1NC(=O)OC(C)C` [Example 316, Isopropyl 2-methoxy-5-[3-(2-thienylcarbonyl)pyrazolo[1,5-a]pyrimidin-7-yl]phenylcarbamate] is lower in IC50: 10 to 50 µM for the first, 1 to 10 µM for the second.

`Cc1ccc(C(=O)c2cnn3c(-c4cccc(N(C)C(=O)C5CC5)c4)ccnc23)cc1` [Example 268, N-Methyl-N-[3-[3-(4-methylbenzoyl)pyrazolo[1,5-a]pyrimidin-7-yl]phenyl}-cyclopropanecarboxamide] and `O=C(Nc1cccc(-c2ccnc3c(C(=O)c4cccs4)cnn23)c1)c1cc(C(F)(F)F)ccc1C(F)(F)F` [Example 280, N-{3-[3-(2-Thienylcarbonyl)pyrazolo[1,5-a]pyrimidin-7-yl]phenyl}-2,5-bis(trifluoromethyl)benzamide] fall in the same range of IC50: 10 to 50 µM for the first, 10 to 50 µM for the second.

Same assay, conditions: Homo sapiens, 120 h; 80S14 p21-deficient cells, 5 days incubation, SRB; read-out: IC50 for 80SI4

`O=C(Nc1cccc(-c2ccnc3c(C(=O)c4cccs4)cnn23)c1)C(Cl)=C(Cl)Cl` [Example 144, 2,3,3-trichloro-N-{3-[3-(thien-2-ylcarbonyl)pyrazolo[1,5-a]pyrimidin-7-yl]phenyl}acrylamide] and `C=CCC(C)OC(=O)Nc1cccc(-c2ccnc3c(C(=O)c4cccs4)cnn23)c1` (stereo not shown) [Example 189, 1-methylbut-3-enyl 3-[3-(thien-2-ylcarbonyl)pyrazolo[1,5-a]pyrimidin-7-yl]phenylcarbamate] cannot be ordered by IC50: under 1 µM for the first, under 1 µM for the second.

First: CC(CC(=O)Nc1cccc(-c2ccnc3c(C(=O)c4cccs4)cnn23)c1)C(F)(F)F (stereo not shown) [Example 59, 4,4,4-trifluoro-3-methyl-N-{3-[3-(thien-2-ylcarbonyl)pyrazolo[1,5-a]pyrimidin-7-yl]phenyl}butanamide]
Second: CCOC(=O)NCC(=O)Nc1cccc(-c2ccnc3c(C(=O)c4cccs4)cnn23)c1 [Example 113, ethyl 2-oxo-2-({3-[3-(thien-2-ylcarbonyl)pyrazolo[1,5-a]pyrimidin-7-yl]phenyl}amino)ethylcarbamate]
The IC50 of the first is lower: under 1 µM for the first, 1 to 10 µM for the second.

`Cc1cnc2c(C(=O)c3cccs3)cnn2c1-c1cccc(NC(=O)C2CCCC2)c1` [Example 218, N-{3-[6-methyl-3-(thien-2-ylcarbonyl)pyrazolo[1,5-a]pyrimidin-7-yl]phenyl}cyclopentanecarboxamide] and `Cc1cnc2c(C(=O)c3cccs3)cnn2c1-c1cccc(NC(=O)OCCCl)c1` [Example 212, 2-chloroethyl 3-[6-methyl-3-(thien-2-ylcarbonyl)pyrazolo[1,5-a]pyrimidin-7-yl]phenylcarbamate] fall in the same range of IC50: 10 to 50 µM for the first, 10 to 50 µM for the second.

First: CCCCCCCOc1ccc(C(=O)Nc2cccc(-c3ccnc4c(C(=O)c5cccs5)cnn34)c2)cc1 [Example 91, 4-(heptyloxy)-N-{3-[3-(thien-2-ylcarbonyl)pyrazolo[1,5-a]pyrimidin-7-yl]phenyl}benzamide]
Second: Cc1ccc(C(=O)Nc2cccc(-c3ccnc4c(C(=O)c5cccs5)cnn34)c2)cc1 [Example 87, 4-methyl-N-{3-[3-(thien-2-ylcarbonyl)pyrazolo[1,5-a]pyrimidin-7-yl]phenyl]benzamide]
The IC50 of the first is higher: 10 to 50 µM for the first, under 1 µM for the second. The second is the more potent here.

Compared with `CC(C)S(=O)(=O)Nc1cccc(-c2ccnc3c(C(=O)c4cccs4)cnn23)c1` [Example 30, N-{3-[3-(thien-2-ylcarbonyl)pyrazolo[1,5-a]pyrimidin-7-yl]phenyl} propane-2-sulfonamide], `Cc1ccccc1S(=O)(=O)Nc1cccc(-c2ccnc3c(C(=O)c4cccs4)cnn23)c1` [Example 33, 2-methyl-N-{3-[3-(thien-2-ylcarbonyl)pyrazolo[1,5-a]pyrimidin-7-yl]phenyl}benzenesulfonamide] is lower in IC50: 1 to 10 µM for the first, under 1 µM for the second.

First: CCCCCCCCCCC(=O)Nc1cccc(-c2ccnc3c(C(=O)c4cccs4)cnn23)c1 [Example 142, N-{3-[3-(thien-2-ylcarbonyl)pyrazolo[1,5-a]pyrimidin-7-yl]phenyl}undecanamide]
Second: C#CCOC(=O)NCC(=O)Nc1cccc(-c2ccnc3c(C(=O)c4cccs4)cnn23)c1 [Example 123, prop-2-ynyl 2-oxo-2-({3-[3-(thien-2-ylcarbonyl)pyrazolo[1,5-a]pyrimidin-7-yl]phenyl}amino)ethylcarbamate]
The IC50 of the first is higher: 10 to 50 µM for the first, 1 to 10 µM for the second. The second is the more potent here.

`O=C(Cc1ccc(F)cc1)Nc1cccc(-c2ccnc3c(C(=O)c4cccs4)cnn23)c1` [Example 109, 2-(4-fluorophenyl)-N-{3-[3-(thien-2-ylcarbonyl)pyrazolo[1,5-a]pyrimidin-7-yl]phenyl}acetamide] showed an IC50 of under 1 µM.
